Assay [1] addresses T1, Cell-based CT-L (proteasome chymotrypsin-like activity) (Homo sapiens, UniProt P28074).
T1 construct: endogenous in cells
T1 sequence (P28074 60-263): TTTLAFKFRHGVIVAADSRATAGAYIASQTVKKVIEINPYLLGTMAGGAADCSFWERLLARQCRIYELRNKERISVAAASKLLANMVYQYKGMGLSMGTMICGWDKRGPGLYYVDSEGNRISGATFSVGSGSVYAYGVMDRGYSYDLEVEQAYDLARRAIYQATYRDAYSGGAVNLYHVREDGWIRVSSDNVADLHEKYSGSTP
The experiment in a line: Cell-based proteasome CT-L activity inhibition.

For assay [2], the target named is 20S proteasome chymotrypsin-like activity (CT-L) (Homo sapiens, UniProt P28074). As to the kind of experiment: 20S proteasome chymotrypsin-like (CT-L) activity inhibition. It counts as biochemical. The source says: As used herein, the term “inhibitor” is meant to describe a compound that blocks or reduces an activity of an enzyme (for example, inhibition of proteolytic cleavage of standard fluorogenic peptide substrates such as suc-LLVY-AMC, Box-LLR-AMC and Z-LLE-AMC, inhibition of various catalytic activities of the 20S proteasome). An inhibitor can act with competitive, uncompetitive, or noncompetitive inhibition. An inhibitor can bind reversibly or irreversibly, and therefore the term includes compounds that are suicide substrates of an enzyme. An inhibitor can modify one or more sites on or near the active site of the enzyme, or it can cause a conformational change elsewhere on the enzyme.
The chymotrypsin-like activity of 20S proteasome is characterized by cleavage of peptides in the immediate vicinity of large hydrophobic residues. In particular, the chymotrypsin-like activity of Ntn hydrolases can be determined by cleavage of a standard substrate. Examples of such substrates are known in the art. For example, a leucylvalinyltyrosine derivative can be used. Enzyme kinetic assays are disclosed in U.S. application Ser. No. 09/569748, Example 2 and Stein et al., Biochem. (1996), 35, 3899-3908.

A value given as a limit tells only on which side of the number the result lay.

IC50 data for nine compounds are collected here from patent US8088741B2, “Compounds for enzyme inhibition” (Onyx Therapeutics, Inc., priority 2004, dated 2012).

The term IC50 denotes the concentration at which inhibition is half-maximal. Low readings indicate inhibition by little substance, high ones a need for much substance. As to `CC(=O)N[C@@H](CCc1ccccc1)C(=O)N[C@@H](CC(C)C)C(=O)N[C@@H](CO)C(=O)N[C@@H](CC(C)C)C(=O)[C@@]1(C)CO1` [Compound 2], the IC50 in assay [1] was less than 500 nM; in assay [2], less than 50 nM.

Take `CC(C)C[C@H](NC(=O)c1ccccc1)C(=O)N[C@@H](Cc1ccccc1)C(=O)N[C@@H](CC(C)C)C(=O)[C@@]1(C)CO1` [Compound 3]: the IC50 in assay [1] and in assay [2] was less than 50 nM each time.

For the compound `CC(C)C[C@H](NC(=O)C1CCN(S(=O)(=O)c2cccs2)CC1)C(=O)N[C@@H](Cc1ccccc1)C(=O)N[C@@H](CC(C)C)C(=O)[C@@]1(C)CO1` [Compound 7], the IC50 in assay [1] and in assay [2] was less than 500 nM in each case.

For the compound `Cc1ccc(CCC(=O)N[C@@H](CC(C)C)C(=O)N[C@@H](Cc2ccccc2)C(=O)N[C@@H](CC(C)C)C(=O)[C@@]2(C)CO2)cc1` [Compound 8], the IC50 in assay [1] and in assay [2] was less than 50 nM throughout.

As to `CC(C)C[C@H](NC(=O)[C@H](CCc1ccccc1)NC(=O)CN1CCOCC1)C(=O)N[C@@H](Cc1ccc(F)cc1)C(=O)N[C@@H](CC(C)C)C(=O)[C@@]1(C)CO1` [Compound 9], the IC50 in assay [1] and in assay [2] was less than 50 nM throughout.

As to `CC(C)C[C@H](NS(=O)(=O)c1ccsc1)C(=O)N[C@@H](Cc1ccccc1)C(=O)N[C@@H](CC(C)C)C(=O)[C@@]1(C)CO1` [Compound 14], the IC50 in assay [1] and in assay [2] was less than 50 nM each time.

On to `COc1ccc(NC(=S)N[C@@H](CC(C)C)C(=O)N[C@@H](Cc2ccccc2)C(=O)N[C@@H](CC(C)C)C(=O)[C@@]2(C)CO2)cc1` [Compound 16], for which the IC50 in assay [1] and in assay [2] was less than 50 nM in each case.

As to `COc1ccc(NC(=O)N[C@@H](CC(C)C)C(=O)N[C@@H](Cc2ccccc2)C(=O)N[C@@H](CC(C)C)C(=O)[C@@]2(C)CO2)cc1` [Compound 17], the IC50 in assay [1] and in assay [2] was less than 50 nM each time.

Consider `CC(C)C[C@H](NC(=O)CN1CCOCC1)C(=O)N[C@@H](Cc1ccccc1)C(=O)N[C@@H](CC(C)C)C(=O)[C@@]1(C)CO1` [Compound 18], for which the IC50 in assay [1] and in assay [2] was less than 50 nM each time.
